Source: patent publication US9414579B2, “Systems and methods for controlling pest infestation of a woody plant” (Dow AgroSciences LLC, priority 2013, dated 2016)

What was measured:
[1] = system: Coptotermes spp.; assay: Example I: field test on a 100 hectare oil palm plot, Quadrants A-D, infested trees inspected monthly for 24 months; assay type: in vivo; details: liquid fipronil 2.5 ml/5 L drenching
Description: Testing was performed to determine the effect in the field of an extruded composite member in the form of Recruit® HD, further details of which are provided in U.S. patent application Ser. No. 12/004,655, on Coptotermes spp. More particularly, a 100 hectare plot of oil palm trees was divided into four quadrants: Quadrants A, B, C and D. The palm oil trees in each of Quadrants A-D were investigated for the presence of termite activity or infestation, and the affected trees were marked accordingly. The affected trees in Quadrants A and C were each treated with liquid fipronil (2.5 ml/5 L drenching), and the affected trees in Quadrants B and D were each treated with a 50 g extruded composite member in the form of Recruit® HD (0.5% hexaflumuron) in a manner similar to that described above in connection with system 60. For Quadrants B and D, consumption of the extruded composite members was investigated and recorded accordingly. Post-treatment inspection of the affected trees was performed on a monthly basis for 24 months following initiation of treatment.
The results of the treatments in Quadrants A-D on a monthly basis over a 24 month period of time following initial treatment are graphically illustrated in FIG. 6.

[2] = system: Coptotermes spp.; assay: Example II: field test on a 60 hectare oil palm plot divided into two plots, infested trees inspected monthly for 24 months; assay type: in vivo; details: for Infested Trees: plot 1 (4461 trees) liquid fipronil 2.0 ml/5 L drenching, plot 2 (4432 trees) 50 g Recruit HD per affected tree; for % Infestation: cumulative results, plot 1 fipronil, plot 2 Recruit HD
Description: Testing was performed to determine the effect in the field of an extruded composite member in the form of Recruit® HD, further details of which are provided in U.S. patent application Ser. No. 12/004,655, on Coptotermes spp. More particularly, a 60 hectare plot of oil palm trees was divided into two plots. The palm oil trees in each of the plots were investigated for the presence of termite activity or infestation, and the affected trees were marked accordingly. The affected trees in plot 1 were each treated with liquid fipronil (2.0 ml/5 L drenching), and the affected trees in plot 2 were each treated with a 50 g extruded composite member in the form of Recruit® HD (0.5% hexaflumuron) in a manner similar to that described above in connection with system 60. For plots 1 and 2, consumption of the extruded composite members was investigated and recorded accordingly. Post-treatment inspection of the affected trees was performed on a monthly basis for 24 months following initiation of treatment.

For `N#Cc1nn(-c2c(Cl)cc(C(F)(F)F)cc2Cl)c(N)c1[S+]([O-])C(F)(F)F` (stereo not drawn) [Fipronil, fipronil], the “Infested Trees” value ([1]; Quadrant A (2246 trees), 0 months (before treatment)) was 29, the “Infested Trees” value ([1]; Quadrant A (2246 trees), 7 months) was 30 and the “Infested Trees” value ([1]; Quadrant A (2246 trees), 12 months) was 29. The “Infested Trees” value ([1]; Quadrant A (2246 trees), 18 months) was 20, the “Infested Trees” value ([1]; Quadrant A (2246 trees), 24 months) was 13 and the “Infested Trees” value ([1]; Quadrant C (2215 trees), 0 months (before treatment)) was 71. The “Infested Trees” value ([1]; Quadrant C (2215 trees), 7 months) was 45, the “Infested Trees” value ([1]; Quadrant C (2215 trees), 12 months) was 51 and the “Infested Trees” value ([1]; Quadrant C (2215 trees), 18 months) was 40. For the same molecule, the “Infested Trees” value ([1]; Quadrant C (2215 trees), 24 months) was 22, the “Infested Trees” value ([2]; 0 months (before treatment)) was 100 and the “% Infestation” value ([2]; 1 year) was 2.31%. For the same molecule, the “% Infestation” value ([2]; 2 year) was 1.76%, the “Infested Trees” value ([2]; 7 months) was 75 and the “Infested Trees” value ([2]; 12 months) was 80. For the same molecule, the “Infested Trees” value ([2]; 18 months) was 60, the “Infested Trees” value ([2]; 24 months) was 35 and the “% Infestation” value ([2]; Pre-Treatment) was 2.24%.
